Data reported in patent US12673038B2, “Antimycotic methoxyflavone and fluconazole combination for inhibiting cryptococcus” (Karl-Franzens-Universität Graz, priority 2019, dated 2026).
≈ marks a conversion by molar mass, not a printed value.

Assays:
[1] = system: S. cerevisiae; test: MIC determination, CLSI protocol M27-A3, OD490; format: cell-based; settings: Saccharomyces cerevisiae; S. cerevisiae planktonic growth, 50% reduction vs control, mean±SEM
Description: S. cerevisiae BY4741 cells were grown in SMD minimal media to mid-log phase and then treated with the indicated concentrations of 5-MF; control cells were treated with the same amount of solvent (DMSO). (A) Clonogenicity was assayed by plating 500 cells on YPD agar plates and colony forming units (CFUs) were counted to calculate survival rates. (B) Yeast cells were analyzed for cell death markers via AnnV/PI co-staining using flow cytometry. (C) The accumulation of reactive oxygen species was monitored by dihydrotethidium (DHE) to ethidium (Eth) conversion using flow cytometry. Assays in (A-C) were performed on day 3 after treatment. […] Data was analyzed by one-way ANOVA and corrected for multiple comparison using a Bonferroni post-hoc test. ns: not significant, * p<0.05, *** p<0.001, **** p<0.0001. […] The minimal inhibitory concentration (MIC) was determined following the standard Clinical and Laboratory Standards Institute (CLSI) protocol M27 (Rex JH, and Clinical and Laboratory Standards Institute (2008). Reference method for broth dilution antifungal susceptibility testing of yeasts: approved standard, 3rd ed. National Committee for Clinical Laboratory Standards, Wayne, PA) for yeast strains or the standard CLSI protocol […] […] After incubation, OD490 values were measured using 96-well plate reader and growth capacity was analyzed by setting the corresponding control to 100%. […]

[2] = system: C. albicans SC5314; test: MIC determination, CLSI protocol M27-A3, OD490; format: cell-based, Candida albicans; settings: C. albicans SC5314, 50 μM 5-MF, untreated control 100%
[3] = system: C. albicans SC5314; test: C. elegans infection model for C. albicans infection; format: in vivo, Caenorhabditis elegans; settings: C. elegans Δglp-4 Δsek-1 infected with C. albicans
Description: Survival curves of non-infected (ui ctrl.) and infected (i ctrl.) nematodes treated or not with 5-MF are shown in (A), and the survival of living nematodes on day 5 is shown in (B). Synchronized C. elegans Δglp-4 Δsek-1 larvae were infected at the L4 stage as previously described (Delattin N, et al., Antimicrob Chemother. 69(2014): 1035-1044). 35-50 infected worms were then suspended in 750 μL growth medium (M9 buffer supplemented with 10 mg/L cholesterol, 100 mg/L kanamycin and 75 mg/L ampicillin) in separate wells of a 24-well plate with at least 3 wells for each condition. Worms were treated with 200 μM 5-MF or the corresponding volume of solvent (i ctrl) immediately after infection (single application). Worm survival was monitored daily over the period of five days. Additionally, the survival of non-infected worms (ui ctrl) was monitored as a control. […] In (B), worm survival is expressed as the percentage of viability at day 5 compared to day 0, with data analyzed using one-way ANOVA and corrected for multiple comparison using a Bonferroni post-hoc test. ** p<0.01, **** p<0.0001. […]
For efficacy testing of compounds, 750 μL of the worm suspension were transferred into each well of a 24-well plate and substances were added at indicated concentrations (1% DMSO). Nematodes were immediately counted (t0) and survival was monitored over five days post infection by counting living worms. […]

[4] = system: C. albicans; test: In vitro antifungal activity of flavone in combination with azoles, growth via OD490; format: cell-based, Candida albicans; settings: OD490, flavone plus azole vs each alone

COc1cccc2oc(-c3ccccc3)cc(=O)c12 [5-MF, 5-methoxyflavone]
MIC50 [1]: 90.6 ± 12.4 µM (≈ 22.9 µg/mL) | growth of planktonic cells compared to untreated cells [2]: about 60% | worms alive at day 5 post infection ([3]; 200 μM 5-MF single application, infected control 20.6%): 42.9% | nematode survival over 5 days post infection ([3]; compared to infected control): prolonged protection | enhancement of the antifungal activity of azoles in the presence of the flavone [4]: enhancement of the antifungal activity
